Reference: patent US8551984B2, “Aminopyrimidines as SYK inhibitors” (Merck Sharp & Dohme Corp., priority 2009, dated 2013)
pIC50: −log10 of the molar value. Read-outs that look alike come from different tables or passages of the source.

Target: recombinant human SYK (GST-hSYK fusion protein) (Homo sapiens, UniProt P43405)
[1] = read-out: rhSYK Activity, Table 113A
[2] = read-out: rhSYK Activity, Table 113B
[3] = read-out: rhSYK Activity, Table 33-A
[4] = read-out: rhSYK Activity (IC50), recombinant human GST-SYK 5 pM, ATP 25 μM, biotinylated substrate peptide 250 nM, HTRF, 10-dose titration
[5] = read-out: rhSYK Activity, Table 33C
[6] = read-out: rhSYK Activity, Table 54D
[7] = read-out: rhSYK Activity, Table 33B

Description: Homogeneous Time-Resolved Fluorescence (HTRF) Assay for the Recombinant Human SYK Enzyme:

SMILES: Cc1cc(Nc2nccc(C)n2)cc(-c2cnc(C3(O)CCC(C(=O)O)CC3C)s2)c1 (stereo not shown) [Example 113A-84]
- pIC50 [1]: > 7.00

SMILES: Cc1cc(Nc2nccc(C(F)(F)F)n2)cc(-c2cnc(C3(O)CC(C)C(C(=O)O)CC3C)s2)c1 (stereo not shown) [Example 113B-14]
- pIC50 [2]: > 7.00

SMILES: COc1ccnc(Nc2cc(C)cc(-c3cnc(C4(O)CCC(C(=O)O)CC4)s3)c2)n1 (stereo not shown) [Example 33A-36]
- pIC50 [3]: > 7.00

SMILES: Cc1cc(Nc2nccc(C(F)C3CC3)n2)cc(-c2cnc(C3(O)CCC(C(=O)O)C(C)(C)C3)s2)c1 (single isomer, unassigned) [Example 100A-22]
- pIC50 [4]: > 7.00

SMILES: Cc1cc(Nc2ncc(F)c(C3CC3)n2)cc(-c2cnc(C3(O)CCC(C(=O)O)C(C)(C)C3)s2)c1 (stereo not shown) [Example 33A-41]
- pIC50 [3]: > 7.00

SMILES: COC(=O)C1CCC(c2ncc(-c3cccc(Nc4nccc(C(F)(F)F)n4)c3)s2)CC1 (stereo not shown) [Example 36A-5]
- pIC50 (read-out: rhSYK Activity, Table 36A): 6.00 to 7.00

SMILES: Cc1cc(Nc2nccc(C)n2)cc(-c2cnc(C3(O)CC4CCC3CC4C(=O)O)s2)c1 (stereo not shown) [Example 33C-19]
- pIC50 [5]: > 7.00

SMILES: Cc1cc(Nc2nccc(C(C)C)n2)cc(-c2cnc(C3(O)CCCN(C(=O)C(C)O)CC3)s2)c1 (stereo not shown) [Example 54D-3]
- pIC50 [6]: > 7.00

SMILES: Cc1cc(Nc2nccc(C(F)(F)F)n2)cc(-c2cnc(C3(O)CCNC(=O)CC3O)s2)c1 (single isomer, unassigned) [161(D), 4,5-dihydroxy-5-[5-(3-methyl-5-{[4-(trifluoromethyl)pyrimidin-2-yl]amino}phenyl)-1,3-thiazol-2-yl]azepan-2-one]
- pIC50 [4]: > 7.00

SMILES: Cc1cc(Nc2nccc(C(F)(F)F)n2)cc(-c2cnc(C3(O)CCCN(C(=O)CC(=O)O)CC3)s2)c1 (single isomer, unassigned) [Example 54D-26]
- pIC50 [6]: > 7.00

SMILES: COC(=O)C1CCC(O)(c2ncc(-c3cc(CO)cc(Nc4nccc(C(F)(F)F)n4)c3)s2)CC1(C)C (single isomer, unassigned) [Example 33A-52]
- pIC50 [3]: > 7.00

SMILES: CCOC(=O)C1CCC(O)(c2ncc(-c3cc(C)cc(Nc4nccc(C)n4)c3)s2)C(C)C1C (stereo not shown) [Example 113A-73]
- pIC50 [1]: > 7.00

SMILES: Cc1cc(Nc2nccc(C)n2)cc(-c2cnc(C3(O)CCC(CC(=O)O)CC3)s2)c1 (stereo not shown) [Example 33A-33]
- pIC50 [3]: > 7.00

SMILES: Cc1cc(Nc2nccc(C(F)(F)F)n2)cc(-c2cnc(C3(O)CCCN(C(=O)c4nc[nH]n4)CC3)s2)c1 (single isomer, unassigned) [Example 54D-125]
- pIC50 [6]: > 7.00

SMILES: Cc1cc(Nc2nccc(C(F)(F)F)n2)cc(-c2cnc(C3(O)CCCN(C(=O)Cc4nnn[nH]4)CC3)s2)c1 (single isomer, unassigned) [Example 54D-60]
- pIC50 [6]: > 7.00

SMILES: Cc1cc(Nc2nccc(C(F)(F)F)n2)cc(-c2cnc(C3(O)CCCN(C(=O)c4cnn[nH]4)CC3)s2)c1 (single isomer, unassigned) [Example 54D-37]
- pIC50 [6]: > 7.00

SMILES: Cc1cc(Nc2nccc(C)n2)cc(-c2cnc(C3(O)CCC(C(=O)O)C(C(C)C)C3)s2)c1 (stereo not shown) [Example 33B-36]
- pIC50 [7]: > 7.00

SMILES: Cc1cc(Nc2nccc(C3CC3)n2)cc(-c2cnc(C3(O)CCC(C(=O)O)C(C)(C)C3)s2)c1 (stereo not shown) [Example 33A-42]
- pIC50 [3]: > 7.00

SMILES: Cc1cc(Nc2nccc(C(F)(F)F)n2)cc(-c2cnc(C3CCC(C(N)=O)C(C)(C)C3)s2)c1 (single isomer, unassigned) [154(d), 2,2-Dim ethyl-4-[5-(3-methyl-5-{[4-(trifluoromethyl)pyrimidin-2-yl]amino}phenyl)-1,3-thiazol-2-yl]cyclohexanecarboxamide]
- pIC50 [4]: > 7.00

SMILES: Cc1cc(Nc2nccc(C(C)C)n2)cc(-c2cnc(C3(O)CCNC(=O)CC3)s2)c1 (single isomer, unassigned) [Example 10A-3]
- pIC50 (read-out: rhSYK Activity, Table 10, Formula A): > 7.00

SMILES: Cc1cc(Nc2nccc(C(F)(F)F)n2)cc(-c2cnc(C3(O)CCCN(C(=O)C(C)(CO)CO)CC3)s2)c1 (single isomer, unassigned) [Example 54D-80]
- pIC50 [6]: > 7.00

SMILES: Cc1cc(Nc2nccc(C(F)(F)F)n2)cc(-c2cnc(C3(O)CCC(O)C(C)(C)C3)s2)c1 (stereo not shown) [8A-7]
- pIC50 (read-out: rhSYK Activity, Table 8A): > 7.00

SMILES: CC1(C)CC(O)(c2ncc(-c3cccc(Nc4nccc(C(F)(F)F)n4)c3)s2)CCC1C(=O)O (single isomer, unassigned) [Example 33A-67]
- pIC50 [3]: > 7.00

SMILES: CC1(C)CC(O)(c2ncc(-c3cc(CO)cc(Nc4nccc(C(F)(F)F)n4)c3)s2)CCC1C(=O)O (stereo not shown) [Example 33A-53]
- pIC50 [3]: > 7.00

SMILES: Cc1cc(Nc2nccc(C)n2)cc(-c2cnc(C3(O)CCC(C(=O)O)CC3O)s2)c1 (stereo not shown) [Example 113A-91]
- pIC50 [1]: > 7.00

SMILES: Cc1cc(Nc2nccc(C)n2)cc(-c2cnc(C3(O)CCC(C(=O)O)C(C)C3)s2)c1 (stereo not shown) [Example 33B-32]
- pIC50 [7]: > 7.00

SMILES: COc1ccnc(Nc2cc(C)cc(-c3cnc(C4(O)CCC(C)(C(=O)O)CC4)s3)c2)n1 (stereo not shown) [Example 33A-37]
- pIC50 [3]: > 7.00

SMILES: Cc1cc(Nc2nccc(C(F)(F)F)n2)cc(-c2cnc(C3(O)CCCN(C(N)=O)CC3)s2)c1 (single isomer, unassigned) [Example 54D-120]
- pIC50 [6]: > 7.00

SMILES: Cc1cc(Nc2nccc(C(F)(F)F)n2)cc(-c2cnc(C3(O)CCCC(C(=O)O)C(C)(C)C3)s2)c1 (stereo not shown) [Example 33B-8]
- pIC50 [7]: > 7.00

SMILES: Cc1cc(Nc2nccc(C(F)(F)F)n2)cc(-c2cnc(C3(O)CCC(CCC(=O)O)CC3)s2)c1 (stereo not shown) [Example 33A-20]
- pIC50 [3]: > 7.00

SMILES: Cc1cc(Nc2nccc(C(F)(F)F)n2)cc(-c2cnc(C3(O)CCCN(C(=O)CO)CC3)s2)c1 (single isomer, unassigned) [Example 54D-123]
- pIC50 [6]: > 7.00

SMILES: Cc1cc(Nc2nccc(C)n2)cc(-c2cnc(C3(O)CCC(C(=O)O)C(C)C3)s2)c1 (stereo not shown) [Example 113A-6]
- pIC50 [1]: > 7.00

SMILES: Cc1cc(Nc2nccc(OC3CCCNCC3)n2)cc(-c2cnc(C3(O)CCC3)s2)c1 (stereo not shown) [Example 108A-10]
- pIC50 (read-out: rhSYK Activity, Table 108A): > 7.00

SMILES: Cc1cc(Nc2nccc(C(F)(F)F)n2)cc(-c2cnc(C3(O)CCCN(C(=O)c4n[nH]c(C(F)(F)F)n4)CC3)s2)c1 (single isomer, unassigned) [Example 54D-110]
- pIC50 [6]: > 7.00

SMILES: Cc1cc(Nc2ncc(Cl)c(C)n2)cc(-c2cnc([C@]3(O)CC[C@@H](C(=O)O)C(C)(C)C3)s2)c1 [116A-26]
- pIC50 (read-out: rhSYK Activity, Table 116A): > 7.00

SMILES: Cc1cc(Nc2nccc(C(F)(F)F)n2)cc(-c2cnc(C(=O)N3CC(O)CC3C(=O)O)s2)c1 (stereo not shown) [Example 87B-24]
- pIC50 [4]: > 7.00

SMILES: CC1(C)CC(O)(c2ncc(-c3cc(F)cc(Nc4nccc(C(F)(F)F)n4)c3)s2)CCC1C(=O)O (single isomer, unassigned) [Example 33A-64]
- pIC50 [3]: > 7.00

SMILES: Cc1cc(Nc2nccc(C(F)(F)F)n2)cc(-c2cnc(C3(O)CCN(C(N)=O)C3)s2)c1 (stereo not shown) [54B-3]
- pIC50 (read-out: rhSYK Activity, Table 54B): > 7.00

SMILES: Cc1cc(Nc2nccc(C)n2)cc(-c2cnc(C3(O)CCC(C(=O)O)CC3C)s2)c1 (stereo not shown) [Example 113A-85]
- pIC50 [1]: > 7.00

SMILES: CCOC(=O)C1CCC(O)(c2ncc(-c3cc(C)cc(Nc4nccc(OCCOC)n4)c3)s2)CC1C (stereo not shown) [Example 113A-44]
- pIC50 [1]: > 7.00

SMILES: Cc1cc(Nc2nccc(C)n2)cc(-c2cnc(C3(O)CC(C)C(C(=O)O)CC3C)s2)c1 (stereo not shown) [Example 113B-6]
- pIC50 [2]: > 7.00

SMILES: Cc1cc(Nc2nccc(C)n2)cc(-c2cnc(C3(O)CCC(C(=O)O)CC3C)s2)c1 (stereo not shown) [Example 113A-81]
- pIC50 [1]: > 7.00

SMILES: Cc1cc(Nc2nccc(C(F)(F)F)n2)cc(-c2cnc(C3(O)CCC(C(=O)O)C(C)(C)C3C)s2)c1 (stereo not shown) [Example 33A-76]
- pIC50 [3]: > 7.00

SMILES: Cc1cc(Nc2nccc(C(F)(F)F)n2)cc(-c2cnc(C3(O)CCCN(C(=O)c4cnon4)CC3)s2)c1 (single isomer, unassigned) [Example 54D-39]
- pIC50 [6]: > 7.00

SMILES: Cc1cc(Nc2nccc(C)n2)cc(-c2cnc(C3(O)CCC(C(=O)O)C(C)C3C)s2)c1 (stereo not shown) [Example 113A-68]
- pIC50 [1]: > 7.00

SMILES: COC(=O)[C@H]1C[C@@H](O)CN1C(=O)c1ncc(-c2cc(C)cc(Nc3nccc(C(F)(F)F)n3)c2)s1 [Example 87B-23]
- pIC50 [4]: > 7.00

SMILES: Cc1cc(Nc2nc(C)cc(C)n2)cc(-c2cnc(C3(O)CCC(C(=O)O)C(C)(C)C3)s2)c1 (stereo not shown) [Example 100A-10]
- pIC50 [4]: 6.00 to 7.00

SMILES: CCOC(=O)C1CCC(O)(c2ncc(-c3cc(C)cc(Nc4nccc(C)n4)c3)s2)C(C)C1C (stereo not shown) [Example 113A-71]
- pIC50 [1]: > 7.00

SMILES: CC1(C)CC(O)(c2ncc(-c3cc(Nc4nccc(C(F)(F)F)n4)cc(C(F)F)c3)s2)CCC1C(=O)O (single isomer, unassigned) [Example 33A-58]
- pIC50 [3]: > 7.00

SMILES: Cc1cc(Nc2nccc(C(C)(O)C3CC3)n2)cc(-c2cnc(C3(O)CCC(C(=O)O)C(C)(C)C3)s2)c1 (single isomer, unassigned) [Example 100A-26]
- pIC50 [4]: > 7.00

SMILES: Cc1cc(Nc2nccc(C(F)(F)F)n2)cc(-c2cnc(C3(O)CCC(CC(=O)O)C3)s2)c1 (single isomer, unassigned) [Example 33B-26]
- pIC50 [7]: > 7.00

SMILES: Cc1cc(Nc2nccc(OC3CCNCC3F)n2)cc(-c2cnc(C(C)(O)C(F)(F)F)s2)c1 (stereo not shown) [Example 94B-7]
- pIC50 [4]: > 7.00

SMILES: Cc1cc(Nc2nccc(C(F)(F)F)n2)cc(-c2cnc(C3(O)CCCN(C(=O)C(O)CO)CC3)s2)c1 (single isomer, unassigned) [Example 54D-29]
- pIC50 [6]: > 7.00

SMILES: Cc1cc(Nc2nccc(C(F)(F)F)n2)cc(-c2cnc(C3(O)C[C@@H]4C(C(=O)O)[C@@H]4C3)s2)c1 (stereo partly shown) [Example 33C-10]
- pIC50 [5]: > 7.00

SMILES: Cc1cc(Nc2nccc(C)n2)cc(-c2cnc(C3(O)CC(C)C(C(=O)O)CC3C)s2)c1 (stereo not shown) [Example 113B-5]
- pIC50 [2]: > 7.00

SMILES: Cc1cc(Nc2nccc(C(F)(F)F)n2)cc(-c2cnc(C3CCC(C(N)=O)C(C)(C)C3)s2)c1 (single isomer, unassigned) [154(b), 2,2-Dim ethyl-4-[5-(3-methyl-5-{[4-(trifluoromethyl)pyrimidin-2-yl]amino}phenyl)-1,3-thiazol-2-yl]cyclohexanecarboxamide]
- pIC50 [4]: > 7.00

SMILES: Cc1cc(Nc2nccc(C(F)(F)F)n2)cc(-c2cnc(C3(O)CCC(CCC(=O)O)CC3)s2)c1 (stereo not shown) [Example 33A-19]
- pIC50 [3]: > 7.00

SMILES: CCOC(=O)C1[C@H]2CC(O)(c3ncc(-c4cc(C)cc(Nc5nccc(C(F)(F)F)n5)c4)s3)C[C@@H]12 (stereo partly shown) [Example 33C-12]
- pIC50 [5]: > 7.00
